From ChEMBL document CHEMBL3045220, “Design, characterization, computational studies, and pharmacological evaluation of substituted-N-[(1E) substituted-phenylmethylidene]benzohydrazide analogs” (Med Chem Res, 2013)
≈ marks a conversion by molar mass, not a printed value.

Key:
Aspergillus niger = assay: Antifungal activity against Aspergillus niger by agar well diffusion method; assay type: functional; conditions: for MIC: Aspergillus niger
Candida albicans = assay: Antifungal activity against Candida albicans by agar well diffusion method; assay type: functional; conditions: for MIC: Candida albicans
Staphylococcus aureus = assay: Antibacterial activity against Staphylococcus aureus by agar well diffusion method; assay type: functional; conditions: for MIC: Staphylococcus aureus
[1] = test system: Staphylococcus epidermidis; assay: Antibacterial activity against Staphylococcus epidermidis by agar well diffusion method; assay type: functional; conditions: for MIC: Staphylococcus epidermidis
Pseudomonas aeruginosa = assay: Antibacterial activity against Pseudomonas aeruginosa by agar well diffusion method; assay type: functional; conditions: for MIC: Pseudomonas aeruginosa
Escherichia coli = assay: Antibacterial activity against Escherichia coli by agar well diffusion method; assay type: functional; conditions: for MIC: Escherichia coli
[2] = Antioxidant activity assessed as Mo(6) reduction activity after 60 min by UV-Vis spectrophotometric analysis; assay type: functional
[3] = Antioxidant activity assessed as H2O2 scavenging activity after 10 min by UV-Vis spectrophotometric analysis; assay type: functional
[4] = Anti-inflammatory activity assessed as inhibition of albumin denaturation incubated for 15 min at 27 degC followed by incubation at 60 degC for 10 min by UV-Vis spectrophotometric analysis

Row | Structure (SMILES) | -logMIC (Aspergillus niger) | MIC (Aspergillus niger) | -logMIC (Candida albicans) | MIC (Candida albicans) | -logMIC (Staphylococcus aureus) | MIC (Staphylococcus aureus) | -logMIC [1] | MIC [1] | -logMIC (Pseudomonas aeruginosa) | MIC (Pseudomonas aeruginosa) | -logMIC (Escherichia coli) | MIC (Escherichia coli) | IC50 [2] | IC50 [3] | IC50 [4]
1 | O=C(N/N=C/c1ccccc1O)c1ccc(Cl)cc1 | 1 | 10 µg/mL (≈ 36.4 µM) | 1.74 | 55 µg/mL (≈ 200 µM) | 1.255 | 18 µg/mL (≈ 65.5 µM) | 1.53 | 34 µg/mL (≈ 124 µM) | 1.09 | 12.5 µg/mL (≈ 45.5 µM) | 1.301 | 20 µg/mL (≈ 72.8 µM) | 50 µg/mL (≈ 182 µM) | 34 µg/mL (≈ 124 µM) | 95 µg/mL (≈ 346 µM)
2 | O=C(N/N=C/c1ccccc1)c1ccccc1C(=O)c1ccccc1 | – | – | 2 | 100 µg/mL (≈ 305 µM) | 1.477 | 30 µg/mL (≈ 91.4 µM) | 1.69 | 50 µg/mL (≈ 152 µM) | 0.81 | 6.5 µg/mL (≈ 19.8 µM) | 1.924 | 84 µg/mL (≈ 256 µM) | 49 µg/mL (≈ 149 µM) | 152 µg/mL (≈ 463 µM) | 105 µg/mL (≈ 320 µM)
3 | O=C(N/N=C/c1ccc(Cl)cc1)c1ccccc1C(=O)c1ccccc1 | 1.3 | 20 µg/mL (≈ 55.1 µM) | 2.301 | 200 µg/mL (≈ 551 µM) | 1.531 | 34 µg/mL (≈ 93.7 µM) | 1.69 | 50 µg/mL (≈ 138 µM) | 1.09 | 12.5 µg/mL (≈ 34.5 µM) | 1.924 | 84 µg/mL (≈ 232 µM) | 20 µg/mL (≈ 55.1 µM) | 109 µg/mL (≈ 300 µM) | 54 µg/mL (≈ 149 µM)
4 | O=C(N/N=C/c1ccc([N+](=O)[O-])cc1)c1ccccc1C(=O)c1ccccc1 | 1.4 | 25 µg/mL (≈ 67 µM) | 1.924 | 84 µg/mL (≈ 225 µM) | 1.531 | 34 µg/mL (≈ 91.1 µM) | 1.47 | 30 µg/mL (≈ 80.3 µM) | 1.3 | 20 µg/mL (≈ 53.6 µM) | 1.397 | 25 µg/mL (≈ 67 µM) | 18 µg/mL (≈ 48.2 µM) | 125 µg/mL (≈ 335 µM) | 17 µg/mL (≈ 45.5 µM)
5 | Cc1ccc(/C=N/NC(=O)c2ccccc2C(=O)c2ccccc2)cc1 | – | – | 1.698 | 50 µg/mL (≈ 146 µM) | 1.531 | 34 µg/mL (≈ 99.3 µM) | 2.3 | 200 µg/mL (≈ 584 µM) | 1.4 | 25 µg/mL (≈ 73 µM) | 2.225 | 168 µg/mL (≈ 491 µM) | 5 µg/mL (≈ 14.6 µM) | 84 µg/mL (≈ 245 µM) | 12 µg/mL (≈ 35 µM)
6 | COc1cc(/C=N/NC(=O)c2ccccc2C(=O)c2ccccc2)ccc1O | 1.4 | 25 µg/mL (≈ 66.8 µM) | 1.301 | 20 µg/mL (≈ 53.4 µM) | 1.531 | 34 µg/mL (≈ 90.8 µM) | 2.3 | 200 µg/mL (≈ 534 µM) | 1.69 | 50 µg/mL (≈ 134 µM) | 1.698 | 50 µg/mL (≈ 134 µM) | 70 µg/mL (≈ 187 µM) | 79 µg/mL (≈ 211 µM) | 10 µg/mL (≈ 26.7 µM)
7 | O=C(N/N=C/c1ccc(O)cc1)c1ccccc1C(=O)c1ccccc1 | 1.92 | 84 µg/mL (≈ 244 µM) | 2 | 100 µg/mL (≈ 290 µM) | 1.531 | 34 µg/mL (≈ 98.7 µM) | 1.92 | 84 µg/mL (≈ 244 µM) | 1.4 | 25 µg/mL (≈ 72.6 µM) | 1.903 | 80 µg/mL (≈ 232 µM) | 100 µg/mL (≈ 290 µM) | 91 µg/mL (≈ 264 µM) | 20 µg/mL (≈ 58.1 µM)
8 | O=C(N/N=C/c1ccccc1[N+](=O)[O-])c1ccccc1C(=O)c1ccccc1 | – | – | 1.397 | 25 µg/mL (≈ 67 µM) | 1.255 | 18 µg/mL (≈ 48.2 µM) | 1.47 | 30 µg/mL (≈ 80.3 µM) | 1.4 | 25 µg/mL (≈ 67 µM) | 1.301 | 20 µg/mL (≈ 53.6 µM) | 42 µg/mL (≈ 112 µM) | 101 µg/mL (≈ 271 µM) | 75 µg/mL (≈ 201 µM)
9 | O=C(N/N=C/c1ccccc1O)c1ccccc1C(=O)c1ccccc1 | 1.53 | 34 µg/mL (≈ 98.7 µM) | 2 | 100 µg/mL (≈ 290 µM) | 1.301 | 20 µg/mL (≈ 58.1 µM) | 1.53 | 34 µg/mL (≈ 98.7 µM) | 1.09 | 12.5 µg/mL (≈ 36.3 µM) | 1.531 | 34 µg/mL (≈ 98.7 µM) | 15 µg/mL (≈ 43.6 µM) | 132 µg/mL (≈ 383 µM) | 35 µg/mL (≈ 102 µM)
10 | COc1cc(/C=N/NC(=O)c2ccc(Cl)cc2)ccc1O | 1.69 | 50 µg/mL (≈ 164 µM) | 1.924 | 84 µg/mL (≈ 276 µM) | 1.255 | 18 µg/mL (≈ 59.1 µM) | 2 | 100 µg/mL (≈ 328 µM) | 1.4 | 25 µg/mL (≈ 82 µM) | 1.531 | 34 µg/mL (≈ 112 µM) | 32 µg/mL (≈ 105 µM) | 0.5 µg/mL (≈ 1.64 µM) | 160 µg/mL (≈ 525 µM)
11 | O=C(N/N=C/c1ccc([N+](=O)[O-])cc1)c1ccc(Cl)cc1 | – | – | 1.301 | 20 µg/mL (≈ 65.9 µM) | 1.301 | 20 µg/mL (≈ 65.9 µM) | – | 100 µg/mL (≈ 329 µM) | 1.3 | 20 µg/mL (≈ 65.9 µM) | 1.531 | 34 µg/mL (≈ 112 µM) | 45 µg/mL (≈ 148 µM) | 1.8 µg/mL (≈ 5.93 µM) | 85 µg/mL (≈ 280 µM)
12 | Cc1ccc(/C=N/NC(=O)c2ccc(Cl)cc2)cc1 | – | 10 µg/mL (≈ 36.7 µM) | 1.301 | 20 µg/mL (≈ 73.3 µM) | 1.477 | 30 µg/mL (≈ 110 µM) | 2.3 | 200 µg/mL (≈ 733 µM) | 0.81 | 6.5 µg/mL (≈ 23.8 µM) | 2.264 | 184 µg/mL (≈ 675 µM) | 42 µg/mL (≈ 154 µM) | 4.3 µg/mL (≈ 15.8 µM) | 86 µg/mL (≈ 315 µM)
13 | O=C(N/N=C/c1c(O)ccc2ccccc12)c1ccc(Cl)cc1 | 2 | 100 µg/mL (≈ 308 µM) | 1.531 | 34 µg/mL (≈ 105 µM) | 1.477 | 30 µg/mL (≈ 92.4 µM) | 2 | 100 µg/mL (≈ 308 µM) | 1.4 | 25 µg/mL (≈ 77 µM) | 1.924 | 84 µg/mL (≈ 259 µM) | 120 µg/mL (≈ 369 µM) | 69 µg/mL (≈ 212 µM) | 80 µg/mL (≈ 246 µM)
14 | O=C(N/N=C/c1cccc([N+](=O)[O-])c1)c1ccc(Cl)cc1 | – | 10 µg/mL (≈ 32.9 µM) | 1.531 | 34 µg/mL (≈ 112 µM) | 1.301 | 20 µg/mL (≈ 65.9 µM) | 1.69 | 50 µg/mL (≈ 165 µM) | 1.4 | 25 µg/mL (≈ 82.3 µM) | 1.301 | 20 µg/mL (≈ 65.9 µM) | 30 µg/mL (≈ 98.8 µM) | 22 µg/mL (≈ 72.4 µM) | 124 µg/mL (≈ 408 µM)
15 | CC1(C)S[C@@H]2[C@H](NC(=O)[C@H](N)c3ccc(O)cc3)C(=O)N2[C@H]1C(=O)O [AMOXICILLIN] | – | – | – | – | – | 12.5 µg/mL (≈ 34.2 µM) | – | 100 µg/mL (≈ 274 µM) | – | 200 µg/mL (≈ 547 µM) | – | 12.5 µg/mL (≈ 34.2 µM) | – | – | –
16 | C=CC1=C(C(=O)O)N2C(=O)[C@@H](NC(=O)/C(=N\OCC(=O)O)c3csc(N)n3)[C@H]2SC1 [CEFIXIME] | – | – | – | – | – | 50 µg/mL (≈ 110 µM) | – | 400 µg/mL (≈ 882 µM) | – | 400 µg/mL (≈ 882 µM) | – | 50 µg/mL (≈ 110 µM) | – | – | –
17 | O=C(O)Cc1ccccc1Nc1c(Cl)cccc1Cl [DICLOFENAC] | – | – | – | – | – | – | – | – | – | – | – | – | – | – | 71 µg/mL (≈ 240 µM)
18 | OC(Cn1cncn1)(Cn1cncn1)c1ccc(F)cc1F [FLUCONAZOLE] | – | 400 µg/mL (≈ 1310 µM) | – | 12.5 µg/mL (≈ 40.8 µM) | – | – | – | – | – | – | – | – | – | – | –
